Columns and labels:
Assay in all cases: Enzymatic activity of PI3K isoforms, TR-FRET assay (PIP3 formation)
Format in all cases: biochemical
PI3Kδ = PI3Kδ (Homo sapiens (Human), UniProt O00329)
Method in brief: (§1)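 Heterodimeric recombinant class I PI3K; PIP3 product displaces labeled PIP3 from GRP-1 PH domain, lowering TR-FRET. Reaction 30 min at 25° C, stopped with 10 mM EDTA, 10 nM labeled-PIP3, 35 nM Eu-GRP-1. Read Ex 340 nm, Em 615/665 nm; IC50 in nM.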

PI3Kα = PI3Kα (Homo sapiens (Human), UniProt P42336)
Method in brief: as §1

PI3Kγ = PI3Kγ (Homo sapiens (Human), UniProt P48736)
Method in brief: (§2)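 Recombinant heterodimeric class I PI3K enzymes were assayed by TR-FRET. PIP3 product displaces fluorescently labelled PIP3 from the GRP-1 PH domain, lowering the signal; IC50 values are given in nM.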

PI3Kβ = PI3Kβ (Homo sapiens (Human), UniProt P42338)
Method in brief: as §2

Sequence of PI3Kβ (P42338 whole entry): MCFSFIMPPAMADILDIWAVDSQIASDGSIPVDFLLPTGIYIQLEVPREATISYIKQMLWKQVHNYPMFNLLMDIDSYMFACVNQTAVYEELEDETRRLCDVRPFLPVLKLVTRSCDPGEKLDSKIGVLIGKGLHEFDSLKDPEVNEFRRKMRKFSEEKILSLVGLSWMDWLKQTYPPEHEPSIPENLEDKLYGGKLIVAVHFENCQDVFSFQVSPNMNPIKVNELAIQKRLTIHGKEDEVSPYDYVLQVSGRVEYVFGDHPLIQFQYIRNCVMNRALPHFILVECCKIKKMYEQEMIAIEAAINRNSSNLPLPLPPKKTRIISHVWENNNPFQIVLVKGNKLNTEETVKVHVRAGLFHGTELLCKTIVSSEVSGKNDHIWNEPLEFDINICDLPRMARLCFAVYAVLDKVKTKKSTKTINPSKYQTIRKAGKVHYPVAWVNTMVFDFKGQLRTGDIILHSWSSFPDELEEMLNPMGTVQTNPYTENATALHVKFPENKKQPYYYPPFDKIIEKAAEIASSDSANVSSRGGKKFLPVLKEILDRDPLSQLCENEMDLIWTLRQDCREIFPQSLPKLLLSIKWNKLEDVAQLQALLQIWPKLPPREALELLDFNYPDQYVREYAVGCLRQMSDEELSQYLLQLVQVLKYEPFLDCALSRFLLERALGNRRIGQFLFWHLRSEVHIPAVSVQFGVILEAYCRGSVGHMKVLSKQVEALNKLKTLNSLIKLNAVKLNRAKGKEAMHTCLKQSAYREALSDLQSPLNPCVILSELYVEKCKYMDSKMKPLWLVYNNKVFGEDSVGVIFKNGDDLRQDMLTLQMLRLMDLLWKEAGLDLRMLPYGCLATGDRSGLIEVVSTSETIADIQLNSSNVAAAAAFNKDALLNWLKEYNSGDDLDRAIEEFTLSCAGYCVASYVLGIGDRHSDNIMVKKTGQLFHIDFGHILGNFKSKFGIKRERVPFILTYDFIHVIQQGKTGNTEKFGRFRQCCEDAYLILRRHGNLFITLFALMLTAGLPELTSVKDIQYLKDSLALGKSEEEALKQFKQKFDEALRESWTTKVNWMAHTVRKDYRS
Sequence of PI3Kβ (P27986 whole entry partner): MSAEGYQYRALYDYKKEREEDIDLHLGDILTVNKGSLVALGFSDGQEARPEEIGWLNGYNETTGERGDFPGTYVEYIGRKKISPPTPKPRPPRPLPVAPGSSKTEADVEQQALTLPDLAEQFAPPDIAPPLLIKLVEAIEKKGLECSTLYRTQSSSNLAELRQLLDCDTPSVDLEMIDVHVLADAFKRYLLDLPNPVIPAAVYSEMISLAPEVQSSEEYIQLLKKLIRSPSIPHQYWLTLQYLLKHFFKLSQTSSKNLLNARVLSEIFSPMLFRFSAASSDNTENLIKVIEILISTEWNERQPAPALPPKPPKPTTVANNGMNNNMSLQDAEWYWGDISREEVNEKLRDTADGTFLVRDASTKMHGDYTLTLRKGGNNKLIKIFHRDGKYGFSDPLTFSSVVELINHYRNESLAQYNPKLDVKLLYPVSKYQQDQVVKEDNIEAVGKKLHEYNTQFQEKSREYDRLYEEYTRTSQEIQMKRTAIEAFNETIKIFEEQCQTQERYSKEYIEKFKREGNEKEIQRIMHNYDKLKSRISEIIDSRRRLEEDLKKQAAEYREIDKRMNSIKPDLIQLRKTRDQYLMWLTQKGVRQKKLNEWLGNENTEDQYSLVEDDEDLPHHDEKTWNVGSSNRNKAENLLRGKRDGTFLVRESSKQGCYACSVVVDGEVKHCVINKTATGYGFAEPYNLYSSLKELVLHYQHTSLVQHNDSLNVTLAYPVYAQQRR
Sequence of PI3Kγ (P48736 whole entry, the tested form may be a part): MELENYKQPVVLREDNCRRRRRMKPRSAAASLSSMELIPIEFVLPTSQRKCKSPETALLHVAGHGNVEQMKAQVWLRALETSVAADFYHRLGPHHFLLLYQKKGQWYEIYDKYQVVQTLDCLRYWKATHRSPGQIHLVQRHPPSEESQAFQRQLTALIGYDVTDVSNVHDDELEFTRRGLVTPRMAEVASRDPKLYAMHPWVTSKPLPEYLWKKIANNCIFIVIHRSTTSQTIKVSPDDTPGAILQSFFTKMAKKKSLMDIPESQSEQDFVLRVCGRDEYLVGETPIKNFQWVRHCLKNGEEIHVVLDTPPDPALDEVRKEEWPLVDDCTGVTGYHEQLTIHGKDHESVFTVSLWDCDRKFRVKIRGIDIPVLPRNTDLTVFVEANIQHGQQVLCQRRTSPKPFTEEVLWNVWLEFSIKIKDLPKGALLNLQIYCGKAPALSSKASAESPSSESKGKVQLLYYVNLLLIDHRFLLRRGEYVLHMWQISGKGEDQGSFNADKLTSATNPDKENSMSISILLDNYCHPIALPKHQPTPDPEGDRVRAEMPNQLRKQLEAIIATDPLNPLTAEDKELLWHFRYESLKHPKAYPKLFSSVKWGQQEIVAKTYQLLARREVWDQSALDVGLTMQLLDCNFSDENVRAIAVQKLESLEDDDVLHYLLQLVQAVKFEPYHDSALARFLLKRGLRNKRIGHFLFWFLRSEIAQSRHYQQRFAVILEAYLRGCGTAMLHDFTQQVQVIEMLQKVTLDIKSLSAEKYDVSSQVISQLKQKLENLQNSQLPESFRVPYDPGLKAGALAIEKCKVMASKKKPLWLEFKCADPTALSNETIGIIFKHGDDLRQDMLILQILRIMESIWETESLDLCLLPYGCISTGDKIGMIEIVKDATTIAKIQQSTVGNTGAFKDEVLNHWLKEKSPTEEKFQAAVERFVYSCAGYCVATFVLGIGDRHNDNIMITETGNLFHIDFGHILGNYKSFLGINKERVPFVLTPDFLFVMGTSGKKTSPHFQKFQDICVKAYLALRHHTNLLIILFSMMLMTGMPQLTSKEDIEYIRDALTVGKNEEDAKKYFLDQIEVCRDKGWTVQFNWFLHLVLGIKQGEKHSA
Sequence of PI3Kγ (Q8WYR1 whole entry partner, the tested form may be a part): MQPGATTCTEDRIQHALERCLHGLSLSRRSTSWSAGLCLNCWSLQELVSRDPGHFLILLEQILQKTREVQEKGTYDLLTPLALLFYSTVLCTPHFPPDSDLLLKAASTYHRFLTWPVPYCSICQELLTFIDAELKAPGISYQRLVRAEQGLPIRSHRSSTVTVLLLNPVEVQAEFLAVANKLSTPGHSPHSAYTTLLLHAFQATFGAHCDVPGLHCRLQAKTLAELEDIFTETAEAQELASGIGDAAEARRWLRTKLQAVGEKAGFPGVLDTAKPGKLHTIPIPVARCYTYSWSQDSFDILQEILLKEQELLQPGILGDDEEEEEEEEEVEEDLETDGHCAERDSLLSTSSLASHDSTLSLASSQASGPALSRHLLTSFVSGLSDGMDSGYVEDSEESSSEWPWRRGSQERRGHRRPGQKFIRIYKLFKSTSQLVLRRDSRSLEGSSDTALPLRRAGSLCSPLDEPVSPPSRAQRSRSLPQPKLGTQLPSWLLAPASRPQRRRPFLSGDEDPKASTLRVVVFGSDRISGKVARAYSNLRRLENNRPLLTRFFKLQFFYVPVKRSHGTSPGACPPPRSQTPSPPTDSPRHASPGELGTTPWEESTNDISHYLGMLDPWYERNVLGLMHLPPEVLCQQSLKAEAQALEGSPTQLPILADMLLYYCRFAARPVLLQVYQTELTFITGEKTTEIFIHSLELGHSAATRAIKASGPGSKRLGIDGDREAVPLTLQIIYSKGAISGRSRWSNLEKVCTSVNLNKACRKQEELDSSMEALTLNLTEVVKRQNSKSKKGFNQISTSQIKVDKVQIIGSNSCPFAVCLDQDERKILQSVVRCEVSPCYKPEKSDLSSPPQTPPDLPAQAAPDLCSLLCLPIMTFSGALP
Sequence of PI3Kδ (O00329 whole entry, the tested form may be a part): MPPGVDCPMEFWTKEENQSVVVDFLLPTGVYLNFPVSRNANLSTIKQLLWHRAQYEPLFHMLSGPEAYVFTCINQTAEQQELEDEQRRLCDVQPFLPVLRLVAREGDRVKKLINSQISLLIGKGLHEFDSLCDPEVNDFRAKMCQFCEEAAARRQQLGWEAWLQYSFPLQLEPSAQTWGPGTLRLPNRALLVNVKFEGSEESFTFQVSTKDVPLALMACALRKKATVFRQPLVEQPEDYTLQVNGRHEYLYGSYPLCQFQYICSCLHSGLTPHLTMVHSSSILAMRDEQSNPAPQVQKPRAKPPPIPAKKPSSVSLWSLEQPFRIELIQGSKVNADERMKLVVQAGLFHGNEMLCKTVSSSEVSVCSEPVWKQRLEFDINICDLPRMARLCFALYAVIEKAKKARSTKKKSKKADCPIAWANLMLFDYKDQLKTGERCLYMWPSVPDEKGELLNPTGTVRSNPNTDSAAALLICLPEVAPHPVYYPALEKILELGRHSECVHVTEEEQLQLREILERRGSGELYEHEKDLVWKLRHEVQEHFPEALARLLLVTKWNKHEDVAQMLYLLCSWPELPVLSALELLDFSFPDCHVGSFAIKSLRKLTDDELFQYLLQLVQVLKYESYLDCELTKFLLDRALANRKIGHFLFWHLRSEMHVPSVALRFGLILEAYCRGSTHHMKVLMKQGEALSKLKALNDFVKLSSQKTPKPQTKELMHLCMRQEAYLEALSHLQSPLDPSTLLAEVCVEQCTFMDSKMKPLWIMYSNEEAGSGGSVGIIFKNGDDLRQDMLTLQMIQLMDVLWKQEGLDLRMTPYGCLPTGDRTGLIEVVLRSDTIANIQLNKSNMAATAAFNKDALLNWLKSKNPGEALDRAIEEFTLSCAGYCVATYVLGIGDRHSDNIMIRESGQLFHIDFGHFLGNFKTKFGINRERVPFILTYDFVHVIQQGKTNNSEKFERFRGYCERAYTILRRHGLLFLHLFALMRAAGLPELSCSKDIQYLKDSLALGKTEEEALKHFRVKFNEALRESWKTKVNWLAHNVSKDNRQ
Sequence of PI3Kδ (P27986 whole entry partner, the tested form may be a part): as the sequence (P27986 whole entry partner) above

SMILES	IC50 (PI3Kδ; bound given in nM) [nM]	IC50 (PI3Kα; bound given in uM) [µM]	IC50 (PI3Kγ; bound given in uM) [µM]	IC50 (PI3Kβ; bound given in uM) [µM]	IC50 (PI3Kα; bound given in nM) [µM]	IC50 (PI3Kγ; bound given in nM) [µM]	IC50 (PI3Kβ; bound given in nM) [µM]	IC50 (PI3Kδ; bound given in uM) [nM]
C[C@H](Nc1ncnc(N)c1C#Cc1ccc(F)cn1)c1nc2cccc(Cl)c2c(=O)n1-c1cccc(CNS(C)(=O)=O)c1 [Compound 130a, (S)—N-(3-(2-(1-((6-amino-5-((5-fluoropyridin-2-yl)ethynyl)pyrimidin-4-yl)amino)ethyl)-5-chloro-4-oxoquinazolin-3(4H)-yl)benzyl)methanesulfonamide]	< 100	> 1	> 1	> 1				
CC[C@H](Nc1ncnc(N)c1C#Cc1cnccn1)c1nc2cccc(C)c2c(=O)n1-c1cc(F)cc(F)c1 [Compound 108a, (S)-2-(1-((6-amino-5-(pyrazin-2-ylethynyl)pyrimidin-4-yl)amino)propyl)-3-(3,5-difluorophenyl)-5-methylquinazolin-4(3H)-one]	< 100	> 1	> 1	> 1				
C[C@H](O)C#Cc1c(N)ncnc1N[C@@H](C)c1nc2cccc(Cl)c2c(=O)n1-c1ccccc1 [Compound 19b, 2-((S)-1-(6-amino-5-((S)-3-hydroxybut-1-ynyl)pyrimidin-4-ylamino)ethyl)-5-chloro-3-phenylquinazolin-4(3H)-one]	< 100	> 1	> 1	> 1				
C[C@H](Nc1ncnc(N)c1C#Cc1cnccn1)c1nc2cccc(C(F)F)c2c(=O)n1-c1cc(F)cc(F)c1 [Compound 66a, (S)-2-(1-((6-amino-5-(pyrazin-2-ylethynyl)pyrimidin-4-yl)amino)ethyl)-5-(difluoromethyl)-3-(3,5-difluorophenyl)quinazolin-4(3H)-one]	< 100	> 1	> 1	> 1				
C[C@H](Nc1ncnc(N)c1C#Cc1ccc(F)cn1)c1nc2cccc(Cl)c2c(=O)n1-c1cccc(CN(C)S(C)(=O)=O)c1 [Compound 129a, (S)—N-(3-(2-(1-((6-amino-5-((5-fluoropyridin-2-yl)ethynyl)pyrimidin-4-yl)amino)ethyl)-5-chloro-4-oxoquinazolin-3(4H)-yl)benzyl)-N-methylmethanesulfonamide]	< 100	> 1	> 1	> 1				
C[C@H](Nc1ncnc(N)c1C#Cc1cnc(N)nc1)c1nc2cccc(Cl)c2c(=O)n1-c1ccccc1 [Compound 33a, (S)-2-(1-(6-amino-5-((2-aminopyrimidin-5-yl)ethynyl)pyrimidin-4-ylamino)ethyl)-5-chloro-3-phenylquinazolin-4(3H)-one]	< 100				< 0.1	< 0.1	< 0.1	
C[C@H](Nc1ncnc(N)c1C#Cc1ncccc1CO)c1nc2cccc(Cl)c2c(=O)n1-c1ccccc1 [Compound 163a, (S)-2-(1-((6-amino-5-((3-(hydroxymethyl)pyridin-2-yl)ethynyl)pyrimidin-4-yl)amino)ethyl)-5-chloro-3-phenylquinazolin-4(3H)-one]		> 1	> 1	> 1				> 1000
C[C@H](Nc1ncnc(N)c1C#Cc1cnccn1)c1nc2c(F)cccc2c(=O)n1-c1cc(F)cc(F)c1 [Compound 100a, (S)-2-(1-((6-amino-5-(pyrazin-2-ylethynyl)pyrimidin-4-yl)amino)ethyl)-3-(3,5-difluorophenyl)-8-fluoroquinazolin-4(3H)-one]	< 100	> 1	> 1	> 1				
Cc1ccc(Cl)c2c(=O)n(-c3ccccc3)c([C@H](C)Nc3ncnc(N)c3C#Cc3ccc(F)cn3)nc12 [Compound 53a, (S)-2-(1-((6-amino-5-((5-fluoropyridin-2-yl)ethynyl)pyrimidin-4-yl)amino)ethyl)-5-chloro-8-methyl-3-phenylquinazolin-4(3H)-one]	< 100	> 1	> 1	> 1				
C[C@H](Nc1ncnc(N)c1C#Cc1ccc(F)cn1)c1nc2ccc(F)cc2c(=O)n1-c1cccc(C#N)c1 [Compound 94a, (S)-3-(2-(1-((6-amino-5-((5-fluoropyridin-2-yl)ethynyl)pyrimidin-4-yl)amino)ethyl)-6-fluoro-4-oxoquinazolin-3(4H)-yl)benzonitrile]	< 100	> 1	> 1	> 1				
C[C@H](Nc1ncnc(N)c1C#C[C@@H](C)O)c1nc2cccc(Cl)c2c(=O)n1-c1ccccc1 [Compound 19a, 2-((S)-1-(6-amino-5-((R)-3-hydroxybut-1-ynyl)pyrimidin-4-ylamino)ethyl)-5-chloro-3-phenylquinazolin-4(3H)-one]	< 100	> 1	> 1	> 1				
C[C@H](Nc1ncnc(N)c1C#Cc1ccc(F)cn1)c1nc2cccc(F)c2c(=O)n1-c1cccc(F)c1 [Compound 99a, (S)-2-(1-((6-amino-5-((5-fluoropyridin-2-yl)ethynyl)pyrimidin-4-yl)amino)ethyl)-5-fluoro-3-(3-fluorophenyl)quinazolin-4(3H)-one]	< 100	> 1	> 1	> 1				
C[C@H](Nc1ncnc(N)c1C#Cc1ccc(F)cn1)c1nc2cccc(F)c2c(=O)n1-c1ccccc1 [Compound 8a, (S)-2-(1-(6-amino-5-((5-fluoropyridin-2-yl)ethynyl)pyrimidin-4-ylamino)ethyl)-5-fluoro-3-phenylquinazolin-4(3H)-one]	< 100	> 1	> 1	> 1				
C[C@H](Nc1ncnc(N)c1C#Cc1ccc(F)cn1)c1nc2cccc(O)c2c(=O)n1-c1ccccc1 [Compound 52a, (S)-2-(1-((6-amino-5-((5-fluoropyridin-2-yl)ethynyl)pyrimidin-4-yl)amino)ethyl)-5-hydroxy-3-phenylquinazolin-4(3H)-one]	< 100	> 1	> 1	> 1				
C[C@H](Nc1ncnc(N)c1C#Cc1ccc(F)cn1)c1nc2c(F)cccc2c(=O)n1-c1cc(F)cc(F)c1 [Compound 2a, (S)-2-(1-((6-amino-5-((5-fluoropyridin-2-yl)ethynyl)pyrimidin-4-yl)amino)ethyl)-3-(3,5-difluorophenyl)-8-fluoroquinazolin-4(3H)-one]	< 100	> 1	> 1	> 1				
